From publication PMC9977398, “Next-generation membrane-active glycopeptide antibiotics that also inhibit bacterial cell division” (Chemical Science, 2023)

How the values were obtained:
B. subtilis = experiment: Cytoplasmic membrane depolarization assay, DiSC3(5); assay type: cell-based; settings: exponentially growing B. subtilis, 10 μM
From the text: The membrane disruption properties of both VanQbiph (4) and VanQAmC10 (8) were studied to correlate the extent of membrane perturbation and bactericidal activity against both exponentially growing and non-growing bacterial cells. Their ability to depolarize the membrane was monitored using the fluorescent probe DiSC3(5) (3,3′-dipropylthiadicarbocyanine iodide). DiSC3(5) is sensitive to the membrane potential and as it accumulates in the membrane, the fluorescence intensity decreases due to self-quenching. Upon dissipation of membrane potential, an increase in fluorescence is observed due to DiSC3(5) being dispersed in the solution. […]
were added to it the wells containing bacterial suspension. Fluorescence has monitored at excitation wavelength of 535 nm (slit width: 10 nm) and emission wavelength of 617 nm (slit width: 5 nm). As a measure of inner membrane permeabilization the uptake of PI was monitor by the increase in fluorescence for 30-50 min. […]
Mid log phase MRSA were harvested (3500 rpm, 5 min), washed in 5 mM glucose and 5 mM HEPES buffer (pH 7.2) in 1:1 ratio and resuspended in 5 mM HEPES buffer, 5 mM glucose and 100 mM KCl solution in 1:1:1 ratio. […] The fluorescence was monitored at excitation wavelength of 622 nm and emission wavelength of 670 nm. […] As a measure of membrane depolarization fluorescence was monitor for another 35 min. […]

[1] = system: GFP-FtsI expressing E. coli; experiment: GFP-FtsI localization and morphology; assay type: cell-based; settings: for localization of GFP-FtsI: vancomycin 34 μM, VanQAmC10 10 and 15 μM
Description: FtsI or PBP-3 is the only transpeptidase required for bacterial cell division and localizes to the septal ring.[37] It regulates the degree of cross-linking and coordinates the division process. GFP-tagged FtsI producing E. coli cells were treated with vancomycin (at 34 μM) and VanQAmC10 (at 10 μM and 15 μM; Fig. 5C) and then examined under the microscope. […] Upon treatment with 10 μM of VanQAmC10, larger phenotypes of variable sizes are observed with shape defects. Some cells appear filamentous like in the case of cephalexin. The GFP-FtsI protein appears as green fluorescent spots delocalized across the cell in 60% of the cells visualized. At a higher concentration of 15 μM, bulkier cells with more distorted shapes than those at 10 μM were observed (Fig. S5 ^†). […]
resuspended in prewarmed BMM media. 1:1 BAC light dye was then added to the bacterial suspension and incubated for 5 minutes. The fluorescence in the GFP and Texas red channels was then observed under the microscope. The experiments were performed three times independently and the images are representative of results from three independent experiments.
B. subtilis 1981 GFP-MinD was cultured overnight in BMM.8 Cells were then inoculated in xylose containing BMM instead of glucose to an OD500 of 0.1 to induce expression of the GFP-MinD fusion protein. Upon reaching an OD500 of 0.35, the cells were treated with test compounds at the PEC (vancomycin, VanQAmC10, VanQbiph) and 0.75 μg/mL (nisin) for 15 min. 0.5 μl of nonfixed, non-immobilized samples of the culture were imaged immediately in fluorescent mode (Olympus microscope with a U-LH100HGAPO burner and a U-RFL-T power supply). The experiments were performed three times independently and the images are representative of results from three independent experiments.
GFP-FtsI and GFP-FtsZ localization in E. coli […]
About 6 μl of sample was immobilized on 1% agarose pad . DIC and fluorescence images were obtained at different time intervals using Nikon Eclipse Ti Microscope equipped with Nikon DS-U3 camera through Plan Apo 100×/1.40 oil objective. […]

Structure (SMILES) | time to membrane depolarisation post-treatment (B. subtilis) | cells with delocalized GFP-FtsI ([1]; 10 μM) | localization of GFP-FtsI [1]
CCCCCCCCCCNC(=O)C[N+](C)(C)CCCNC(=O)C1NC(=O)C2NC(=O)C(NC(=O)C3NC(=O)C(CC(N)=O)NC(=O)C(NC(=O)C(CC(C)C)NC)C(O)c4ccc(c(Cl)c4)Oc4cc3cc(c4OC3OC(CO)C(O)C(O)C3OC3CC(C)(N)C(O)C(C)O3)Oc3ccc(cc3Cl)C2O)c2ccc(O)c(c2)-c2c(O)cc(O)cc21 (centres unmarked) [VanQAmC10 (8)] | ≤ 2 min | 60% | mislocalizes the cell division protein, FtsI
CNC(CC(C)C)C(=O)NC1C(=O)NC(CC(N)=O)C(=O)NC2C(=O)NC3C(=O)NC(C(=O)NC(C(=O)NCCC[N+](C)(C)Cc4ccc(-c5ccccc5)cc4)c4cc(O)cc(O)c4-c4cc3ccc4O)C(O)c3ccc(c(Cl)c3)Oc3cc2cc(c3OC2OC(CO)C(O)C(O)C2OC2CC(C)(N)C(O)C(C)O2)Oc2ccc(cc2Cl)C1O (centres unmarked) [VanQbiph (4)] | ≤ 2 min |  | 
CN[C@H](CC(C)C)C(=O)N[C@H]1C(=O)N[C@@H](CC(N)=O)C(=O)N[C@H]2C(=O)N[C@H]3C(=O)N[C@H](C(=O)N[C@H](C(=O)O)c4cc(O)cc(O)c4-c4cc3ccc4O)[C@H](O)c3ccc(c(Cl)c3)Oc3cc2cc(c3O[C@@H]2O[C@H](CO)[C@@H](O)[C@H](O)[C@H]2O[C@H]2C[C@](C)(N)[C@H](O)[C@H](C)O2)Oc2ccc(cc2Cl)[C@H]1O [Vancomycin, reference compound] |  |  | localization of FtsI at the septum
